{"source": "patent US4550021A", "about": "(The Kitasato Institute, priority 1983, dated 1985)", "format_in_all_cases": "physicochemical", "key": {"Solubility": {"test": "Solubility", "settings": "for Solubility in organic solvents: dichloromethane, chloroform, acetone"}, "Stability under heating": {"test": "Stability under heating"}, "Nature (acid/base)": {"test": "Nature (acid/base)"}}}
{"smiles": "CCC(=C/[C@H](C)C/C=C/C(C)=C/[C@@H](CO)C(=O)[C@@H](C)[C@H](O)[C@@H](C)C/C(C)=C/C(=O)O)/C=C/[C@@H]1OC(=O)C=C[C@@H]1C", "note": "[antibiotic 81-484]", "values": [{"measurement": "Solubility in organic solvents", "setting": "Solubility; diethyl ether, methanol, ethyl acetate, butyl acetate, benzene", "result": "soluble"}, {"measurement": "Solubility in hexane", "setting": "Solubility; hexane", "result": "insoluble"}, {"measurement": "Solubility in organic solvents", "setting": "Solubility; many types: methanol, ethanol, methyl isobutyl ketone", "result": "soluble"}, {"measurement": "Solubility in water", "setting": "Solubility; water", "result": "insoluble"}, {"measurement": "stability under heating", "setting": "Stability under heating", "result": "stable under heating"}, {"measurement": "Nature", "setting": "Nature (acid/base)", "result": "acidic substance"}]}
